Experimental data taken from patent publication US20250281478A1, “METHODS FOR PREVENTING OR TREATING KIDNEY DISEASES” (JEAMOON BEIJING CO., LTD., priority 2022, published 2025).

What was measured:
Type in all cases: in vivo, C57BL/6N mice
[1] = tested on: mice with adenine-induced renal failure; experiment: Survival of mice with adenine-induced renal failure; settings: TAK875 30 mg/kg p.o. QD
Description: • 1. Experimental Animals: C57BL/6N, 8 weeks old, SPF grade, male. • 2. Experimental Drugs: • LY2922470 (Shanghai Taoshu Biotechnology Co., Ltd.) • TAK875 (Shanghai Taoshu Biotechnology Co., Ltd.)
1) Preparation of TAK875: A total of 27 mg of TAK875 powder was accurately weighed using an analytical balance and dissolved in 9 mL of 0.8% CMC-Na solution. The mixture was sonicated for 5 minutes to form a 3 mg/mL white suspension. The suspension was stored at 4° C. for later use.
2) Preparation of LY2922470: A total of 80 mg of LY2922470 yellow crystals was added to 200 μL of DMSO to form a clear yellow solution. The solution was gradually added in batches to 10 mL of 0.8% CMC-Na solution. After heating and sonication for 5 hours, an 8 mg/mL white suspension of LY2922470 was obtained. The suspension was stored at 4° C. for later use.
Eight-week-old male C57BL/6N mice were acclimatized for one week and then randomly divided into six groups. Except for the control group, all mice were fed a 0.25% adenine-containing diet for modelling. The control group received a normal diet. The mice had free access to food. One week after model induction, mice in each group were orally administered the corresponding drug once daily in the afternoon, according to their group assignment. The control group and the model group received vehicle under a same condition. During the treatment period, the adenine-containing diet was continued. Mouse survival was monitored until the end of the experiment.

[2] = tested on: mice with sustained adenine-induced renal failure; experiment: Glomerular filtration rate in mice with sustained adenine-induced renal failure (TGFR system); settings: TAK875 30 mg/kg p.o. QD for 2 weeks; 3 weeks continuous 0.25% adenine diet; FIG. 4
Description: (§1) • a) Control group: Fed with adenine-free feed; other procedures were the same as those in the model group. • b) Model group: Fed with feed containing 0.25% adenine for modelling. • c) LY-10 mg/kg group: Model+LY2922470 (10 mg/kg, p.o., QD). • d) LY-30 mg/kg group: Model+LY2922470 (30 mg/kg, p.o., QD). • e) LY-60 mg/kg group: Model+LY2922470 (60 mg/kg, p.o., QD). • f) TAK875 group: Model+TAK875 (30 mg/kg, p.o., QD).
(§2) Except for the control group, all other mice were fed with a diet containing 0.25% adenine for modelling. The control group was fed with a normal diet. All mice were allowed free access to food. One week after modeling, each group of mice was administered the respective treatment via oral gavage once daily in the afternoon for two consecutive weeks. The control group and the model group received vehicle under a same condition. The adenine-containing diet was continuously administered for modeling throughout the treatment period until the end of the experiment. The physical condition of the mice was monitored, and body weight was measured and recorded weekly. Blood samples were collected from the orbital venous plexus at 1 week (post-modeling) and 3 weeks (after 2 weeks of treatment). Serum was separated for the measurement of serum creatinine (CRE) and blood urea nitrogen (BUN). At the end of the two-week treatment, renal function of each group was assessed using a TGFR renal function monitoring and smart analysis system. After testing, tissues were collected from the mice to confirm the efficacy of the treatment.
(§3) Statistical analyses were performed using GraphPad Prism 8.0 software. Continuous data of each group were expressed as mean+SD. One-way ANOVA was used for multi-group comparisons, and Student's t-test was used for comparisons between two groups. A p-value<0.05 was considered statistically significant. For categorical data, chi-square tests were used to compare between groups, with p<0.05 indicating a statistically significant difference.
One week later, LY2922470 or TAK875 was administrated for treatment. […]

[3] = tested on: mice with adenine-induced renal failure; experiment: Serum creatinine (CREA) in adenine-induced renal failure mice
Description: as §1, §2, §3
(§4) Mice were fed a 0.25% adenine-containing diet. After one week, the mice were treated with LY2922470 or TAK875. During the treatment period, the adenine-containing diet was continued for modeling. After three weeks of adenine feeding (i.e., two weeks of drug administration), blood samples were collected from the mice, and serum was isolated for CREA and BUN measurements.

[4] = tested on: mice with adenine-induced renal failure; experiment: Blood urea nitrogen (BUN) in adenine-induced renal failure mice
Description: as §1, §2, §3, §4

[5] = tested on: mice with adenine-induced renal failure; experiment: Renal fibrosis by Masson's trichrome staining in adenine-induced renal failure mice; settings: TAK875 30 mg/kg p.o. QD for 2 weeks; 3 weeks of modeling; FIG. 6
Description: Mice were modeled and administered drugs as described in Example 3. After two weeks of drug administration, the mice were euthanized, and their kidneys were fixed, sectioned, stained with Masson's trichrome, and analyzed.
Whole-slide scanning was performed using a fully automated digital pathology scanner KF-PRO-120 from Ningbo Jiangfeng Bioinformatics Technology Co., Ltd. Masson-stained images were analyzed using the Area Quantification module in HALO software. The blue staining of collagen fibers was used as the unified criterion for positivity. The images were analyzed, and the percentage of blue-stained collagen fibers in the tissue was calculated.
Statistical analysis was conducted using GraphPad Prism 8.0. Continuous data for each group were expressed as mean+SD. One-way ANOVA was used for multi-group comparisons, and Student's t-test was used for comparisons between two groups. A p-value<0.05 was considered statistically significant. For categorical data, chi-square tests were used for comparisons among groups, and a p-value<0.05 was considered statistically significant.

[6] = TAK875 30 mg/kg p.o. QD for 2 weeks
[7] = TAK875 30 mg/kg p.o. QD, mean ± SD

Cc1cc(OCCCS(C)(=O)=O)cc(C)c1-c1cccc(COc2ccc3c(c2)OC[C@H]3CC(=O)O)c1 [TAK875]
Survival Rate (%) ([1]; started 1 week after start of continued 0.25% adenine diet, end of experiment, 30 mg/kg): 46.2% | Count after Drug Administration (surviving mice) ([1]; 13 at enrollment): 6 | GFR compared with the model group [2]: increased | CREA level compared with the model group [3, 6]: did not significantly reduce | CREA after modeling for 3 weeks (after drug administration for 2 weeks) [3, 7]: 137.68 ± 30.23 µmol/L | BUN level compared with the model group [4, 6]: did not significantly reduce | BUN after modeling for 3 weeks (after drug administration for 2 weeks) [4, 7]: 25.07 ± 4.91 mmol/L | BUN after modeling for 1 week (before drug administration) ([4]; baseline of the TAK875 30 mg/kg group, mean ± SD): 11.25 ± 3.98 mmol/L | Degree of renal fibrosis compared to the model group (Masson staining) [5]: not significantly reduced
